Values quoted from earlier work, collected in US20190011434A1, “METHODS TO DETERMINE CANCER TREATMENT USING ROBOTIC HIGH-THROUGHPUT DRUG SENSITIVITY TESTING” (AntiCancer, Inc., priority 2017, published 2019).

Key:
[1] = system: primary tumor and axillary lymph node metastasis from breast cancer patients; settings: 30 patients; cutoff drug concentrations; 7 days incubation; p<0.05
[2] = system: head and neck squamous cell carcinoma (HNSCC) tumor specimens; settings: 41 evaluated tumors; cisplatin 15 microg/mL or 5-fluorouracil 40 microg/mL; sensitivity = inhibition rate greater than 30%

Row | SMILES | Chemosensitivity of lymph node metastases compared with primary tumor [1] | Resistance in the HDRA (share of cases) [2] [%]
1 | COc1cccc2c1C(=O)c1c(O)c3c(c(O)c1C2=O)C[C@@](O)(C(=O)CO)C[C@@H]3O[C@H]1C[C@H](N)[C@H](O)[C@H](C)O1 [DOX, doxorubicin] | more resistant than the primary tumor | –
2 | O=c1[nH]cc(F)c(=O)[nH]1 [5-fluorouracil] | more resistant than the primary tumor | 32
3 | N.N.[Cl][Pt][Cl] [cisplatinum] | not | 32
4 | CO[C@@]12[C@H](COC(N)=O)C3=C(C(=O)C(C)=C(N)C3=O)N1C[C@@H]1N[C@@H]12 [MMC, mitomycin C] | more resistant than the primary tumor | –
